{
  "source": "paper PMC10326281",
  "about": "“Insights into the mechanisms governing P01 scorpion toxin effect against U87 glioblastoma cells oncogenesis” (Frontiers in Pharmacology, 2023)",
  "key": {"[1]": {"tested_on": "U87 glioblastoma cells", "assay": "Cell proliferation test (crystal violet), U87", "assay_type": "cell-based, human", "from_the_text": "(§1) The ATCC (American Type Culture Collection, Rockville, MD, United States) cancer cell lines U87 (glioblastoma), MDA-MB231 (breast cancer) and LS174 (colon adenocarcinoma) were routinely cultured in DMEM supplemented with 10% fœtal bovine serum (FBS), 1% l-glutamine and 100 IU/mL penicillin/streptomycin. […] Rat SK2 cDNA cloned into pJA5 plasmid was a gift from Dr. Skolnik (university Langone Medical center, New York). Human SK3 cDNA cloned into Pipru vector was a king gift from Pr. Soriani (Université Côte d’Azur, CNRS, Inserm, Nice, France).\nThe effect of the P01 peptide on cell proliferation was studied. The human cell lines U87, MDA-MB231 or LS174 (5,000 cells per well) were treated with 2; 5 and 10 μg/mL of P01 peptide. The plates were placed at 37°C for 72 h. Cellular proliferation was quantified at 560 nm by a spectrophotometer (Thermo-Multiskan EX, Shanghai, China) after treatment with 1% glutaraldehyde and staining with 0.1% crystal violet.\nEvery 24 h, a series of wells was washed with PBS, the cells were fixed with 1% glutaraldehyde, and preserved in PBS to follow the kinetics of proliferation. After 72 h, the cells were stained with crystal violet 0.1% and quantified by measuring the absorbance at 560 nm using a spectrophotometer (Thermo-Multiskan EX, Shanghai, China)."}, "[2]": {"tested_on": "apamin-sensitive receptor (SKCa channels)", "settings": "selective blocker of SKCa channels displaced; previously reported, ref Zerrouk et al., 1996; cited from earlier work", "from_the_text": "Our team has initiated the fractionation of Aa scorpion venom, in order to identify scorpion peptides targeting potassium channels involved in the oncological process. Thus, we succeeded to isolate one peptide well represented in this venom. Based on its N-terminal sequence and its mass fingerprint this peptide corresponded to the P01 toxin, previously described by ([Zerrouk et al., 1996])."}, "[3]": {"tested_on": "MDA-MB231 breast cancer cells", "assay": "Cell viability (MTT), MDA-MB231", "assay_type": "cell-based, human", "settings": "25–200 μg/mL, 24 h, 10,000 cells per well, n = 3", "from_the_text": "as §1\nThe human cell lines U87, MDA-MB231, or LS174 (10,000 cells per well) were treated with P01 peptide at different concentrations (25; 50; 100 and 200 μg/mL). After 24 h, the wells were washed with phosphate-buffered saline (PBS) and then the 3-(4,5-dimethylthiazol-2-yl)-2,5-diphenyltetrazolium bromide (MTT) (0.5 mg/mL) was added to the cells as previously described ([Kouba et al., 2020]). The crystals formed after the reduction of MTT by mitochondrial dehydrogenases were dissolved with dimethylsulfoxyde (DMSO). The quantification of live cells was achieved by measuring absorbance at 560 nm using a spectrophotometer (Thermo-Multiskan EX, Shanghai, China)."}, "[4]": {"tested_on": "SK3 channel", "settings": "Jurkat cells; ref Shakkottai et al., 2001; cited from earlier work", "from_the_text": "(§2) This can be explained by the differential expression of either functional SK2 isoforms or other membrane receptors between HEK293 and Jurkat cells."}, "[5]": {"tested_on": "SK2 channel", "settings": "Jurkat cells; ref Shakkottai et al., 2001; cited from earlier work", "from_the_text": "as §2"}, "[6]": {"tested_on": "U87 glioblastoma cells", "assay": "Cell adhesion assay, U87", "assay_type": "cell-based, human", "settings": "n = 3; for inhibition of adhesion: 50 μg/mL P01, 2 h", "from_the_text": "as §1\nAdhesion assays were performed as previously described by ([Sarray et al., 2007]). Glioblastoma U87 cells in suspension (10^6 cells/mL) were treated with 50 μg/mL of P01 and deposited on wells coated with purified extracellular matrix (ECM): Fg at 50 μg/mL; Fn at 10 μg/mL; Coll-I at 50 μg/mL; laminin (Lam) at 15 μg/mL or poly-L-lysine (PL) at 20 μg/mL for U87. MDA-MB231 and LS174 cells were also used in their adequate ECM: Fg and Coll-I respectively. They were incubated to adhere to the substrate for 2 h or 24 h at 37°C. After washing, attached cells were fixed, stained by 0.1% crystal violet, lysed with 1% SDS and quantified by measuring absorbance at 560 nm. The specific adhesion is obtained by subtracting the absorbance obtained in the absence of adhesion substrate (no specific control). To study the dose-response effect, different concentrations of P01 were used (25–100 μg/mL) and the IC50 value was determined."}, "[7]": {"tested_on": "MDA-MB231 breast cancer cells", "assay": "Cell migration assay (modified Boyden chamber), MDA-MB231", "assay_type": "cell-based, human", "settings": "50 μg/mL, 5 h, fibronectin 10 μg/mL coating, n = 3", "from_the_text": "as §1\n(§3) Cell migration assay was performed using modified Boyden chamber (NeuroProbe Inc., Bethesda, MD, United States) as previously described ([Sarray et al., 2007]). Membranes were coated with fibrinogen (Fg) (50 μg/mL), fibronectin (Fn) (10 μg/mL), collagen type I (Coll-I) (50 μg/mL) for U87, MDA-MB231 and LS174 cells respectively, for 2 h at 37°C. Cells were harvested as a single cell suspension (10^6 cells/mL) and treated with P01 at 50 μg/mL. Then added to pre-coated membranes and allowed to migrate for 5 h at 37°C in Boyden chamber. Cells were fixed on the underside of the membrane, stained by 0.1% crystal violet and migration was quantified by measuring the absorbance at 560 nm using a spectrophotometer (Thermo-Multiskan EX, Shanghai, China)."}, "[8]": {"tested_on": "LS174 colon adenocarcinoma cells", "assay": "Cell migration assay (modified Boyden chamber), LS174", "assay_type": "cell-based, human", "settings": "50 μg/mL, 5 h, collagen type I 50 μg/mL coating, n = 3", "from_the_text": "as §1, §3"}, "[9]": {"tested_on": "αvβ3 integrin", "assay": "U87 cell adhesion in presence of anti-integrin antibodies, αvβ3", "assay_type": "cell-based, human", "settings": "50 μg/mL P01, 30 min pre-incubation, 2 h at 37°C, anti-αvβ3 (1/200), n = 3", "experimental": "To study the implication of integrins in the P01 peptide activity, adhesion assays using anti-integrin blocking antibodies: anti- α1β1 (1/200), anti- αvβ3 (1/200), anti- α5 (1/200) and anti- β3 (1/200) were performed as described above, except that cells were pretreated with the active peptide P01 at 50 μg/mL."}, "[10]": {"tested_on": "U87 glioblastoma cells", "assay": "Cell migration assay (modified Boyden chamber), U87", "assay_type": "cell-based, human", "from_the_text": "as §1, §3"}},
  "note": "Where a SMILES comes first, the peptide text is derived from it. Bridges are numbered along the chain shown (N, C = ends).",
  "data": [
    {"smiles": "CC[C@H](C)[C@H](NC(=O)[C@@H]1CCCN1C(=O)[C@H](CCC(=O)O)NC(=O)[C@@H]1CSSC[C@@H]2NC(=O)[C@H](Cc3c[nH]cn3)NC(=O)[C@H](CCC(=O)O)NC(=O)[C@@H]3CCCN3C(=O)[C@@H]3CSSC[C@H](NC(=O)[C@H](CCCCN)NC(=O)[C@H](CC(=O)O)NC(=O)[C@H](CC(N)=O)NC(=O)[C@H](CC(=O)O)NC(=O)[C@H](CSSC[C@H](NC(=O)[C@H](CO)NC(=O)[C@@H](N)C(C)C)C(=O)N[C@@H](CCC(=O)O)C(=O)N[C@@H](CC(=O)O)C(=O)N3)NC(=O)[C@H](CCCCN)NC(=O)[C@H](C)NC(=O)[C@H](CCC(N)=O)NC(=O)[C@H](C)NC(=O)[C@H](CCCCN)NC(=O)[C@H](CCC(N)=O)NC(=O)[C@H]([C@@H](C)O)NC(=O)[C@H](CO)NC2=O)C(=O)N[C@@H](C(C)C)C(=O)N1)C(=O)O", "note": "[P01] (H-VSCEDCPEHCSTQKAQAKCDNDKCVCEPI-OH; disulfide 3-19, 6-24, 10-26 (inferred); N-terminus and C-terminus assumed)", "values": [
      {"measurement": "IC50 (viability/proliferation)", "setting": "[1]; 72 h of incubation", "value": 10, "unit": "mg/L"},
      {"measurement": "kinetic effect on proliferation", "setting": "[1]; P01 at 10 μg/mL, time course to 72 h, n = 3", "value": "inhibition appeared after 48 h of treatment"},
      {"measurement": "inhibition of 125I-apamin binding", "setting": "[2]", "value": "inhibit the binding of ^125I-apamin"},
      {"measurement": "cytotoxic effect (cell viability)", "setting": "[3]", "value": "did not have a cytotoxic effect"},
      {"measurement": "blocking activity on SK3", "setting": "[4]", "value": "little or no blocking activity"},
      {"measurement": "blocking activity on SK2", "setting": "[5]", "value": "little or no blocking activity"},
      {"measurement": "effect on adhesion after 24 h, Fg and Fn", "setting": "[6]; Fg and Fn, 50 μg/mL P01, 24 h", "value": "stayed active on Fg and Fn"},
      {"measurement": "inhibition of adhesion", "setting": "[6]; fibrinogen (Fg), 37°C", "value": 41, "unit": "%"},
      {"measurement": "IC50 (adhesion to Fg)", "setting": "[6]; fibrinogen, 25–100 μg/mL, 2 h", "value": 48.86, "unit": "mg/L"},
      {"measurement": "inhibition of adhesion", "setting": "[6]; fibronectin (Fn), 37°C", "value": 38, "unit": "%"},
      {"measurement": "IC50 (adhesion to Fn)", "setting": "[6]; fibronectin, 25–100 μg/mL, 2 h", "value": 62.04, "unit": "mg/L"},
      {"measurement": "inhibition of adhesion", "setting": "[6]; poly-L-lysine (Pl)", "value": "no inhibition could be observed"},
      {"measurement": "effect on adhesion after 24 h, Pl", "setting": "[6]; poly-L-lysine (Pl), 50 μg/mL P01, 24 h", "value": "an inhibition effect on Pl appeared"},
      {"measurement": "effect on migration", "setting": "[7]", "value": "no effect"},
      {"measurement": "effect on migration", "setting": "[8]", "value": "no effect"},
      {"measurement": "effect on adhesive function of αvβ3", "setting": "[9]", "value": "reduced the adhesive function"},
      {"measurement": "inhibition of migration", "setting": "[10]; 50 μg/mL, 5 h at 37°C, fibrinogen 50 μg/mL coating, n = 3", "value": 48, "unit": "%"},
      {"measurement": "IC50 (migration)", "setting": "[10]; Boyden chamber, 5 h", "value": 50, "unit": "mg/L"}
    ]}
  ]
}
